In patent US20160176880A1, “SUBSTITUTED IMIDAZO[1,2-A]PYRAZINECARBOXAMIDES AND USE THEREOF” (BAYER PHARMA AKTIENGESELLSCHAFT, priority 2013, published 2016):

Target: T1, recombinant guanylate cyclase reporter cell line (Rattus norvegicus, UniProt P19686+P20595)
T1 construct: expressed in transfected cells
T1 sequence (P19686 1-690): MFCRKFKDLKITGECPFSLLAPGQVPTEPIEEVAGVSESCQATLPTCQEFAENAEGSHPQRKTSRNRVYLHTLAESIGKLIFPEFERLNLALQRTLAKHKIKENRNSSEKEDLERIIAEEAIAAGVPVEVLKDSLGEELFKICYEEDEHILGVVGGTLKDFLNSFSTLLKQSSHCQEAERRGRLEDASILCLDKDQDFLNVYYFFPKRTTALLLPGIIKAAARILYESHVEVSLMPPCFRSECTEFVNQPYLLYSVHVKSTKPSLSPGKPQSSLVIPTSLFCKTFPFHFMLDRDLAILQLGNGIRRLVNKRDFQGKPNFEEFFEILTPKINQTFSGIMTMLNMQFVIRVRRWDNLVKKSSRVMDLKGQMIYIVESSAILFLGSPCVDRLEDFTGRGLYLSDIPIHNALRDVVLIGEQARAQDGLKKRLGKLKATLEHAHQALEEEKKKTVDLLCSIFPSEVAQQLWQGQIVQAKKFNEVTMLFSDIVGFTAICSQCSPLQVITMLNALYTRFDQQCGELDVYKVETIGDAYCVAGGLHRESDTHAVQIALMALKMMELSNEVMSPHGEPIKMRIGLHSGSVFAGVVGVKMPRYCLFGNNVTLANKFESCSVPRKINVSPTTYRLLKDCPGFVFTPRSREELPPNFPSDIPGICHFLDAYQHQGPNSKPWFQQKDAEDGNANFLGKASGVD
T1 sequence (P20595 1-619): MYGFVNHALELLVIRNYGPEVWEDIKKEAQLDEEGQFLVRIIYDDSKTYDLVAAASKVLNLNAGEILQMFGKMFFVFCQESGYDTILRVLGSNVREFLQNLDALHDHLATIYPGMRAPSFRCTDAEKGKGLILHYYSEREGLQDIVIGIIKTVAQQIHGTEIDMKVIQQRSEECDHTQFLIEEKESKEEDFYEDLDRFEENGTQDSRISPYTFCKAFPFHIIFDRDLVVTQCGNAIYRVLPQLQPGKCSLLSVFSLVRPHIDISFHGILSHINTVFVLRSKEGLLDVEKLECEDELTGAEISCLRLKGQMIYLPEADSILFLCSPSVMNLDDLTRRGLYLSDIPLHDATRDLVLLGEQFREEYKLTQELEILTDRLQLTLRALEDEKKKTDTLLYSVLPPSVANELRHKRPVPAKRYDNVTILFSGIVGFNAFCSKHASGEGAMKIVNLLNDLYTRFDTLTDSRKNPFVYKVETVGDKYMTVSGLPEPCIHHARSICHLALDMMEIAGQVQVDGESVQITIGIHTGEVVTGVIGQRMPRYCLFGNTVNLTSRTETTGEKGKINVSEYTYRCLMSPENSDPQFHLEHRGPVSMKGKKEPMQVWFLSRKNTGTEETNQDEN
Assay: Effect on a recombinant guanylate cyclase reporter cell line
Assay type: cell-based
Conditions: MEC = minimum effective concentration; in some cases mean values for individual determinations
Procedure: B-2. Effect on a Recombinant Guanylate Cyclase Reporter Cell Line
The cellular action of the compounds of the invention is determined using a recombinant guanylate cyclase reporter cell line, as described in F. Wunder et al., Anal. Biochem. 339, 104-112 (2005).
Representative MEC values (MEC=minimum effective concentration) for the compounds of the invention are shown in the table below (in some cases as mean values for individual determinations): […]

MEC | SMILES
1 µM | Cc1cn2c(C(=O)NCc3ccc(Cl)nc3)c(C)nc2c(OCc2c(F)cccc2F)n1 [Example 28, N-[(6-chloropyridin-3-yl)methyl]-8-[(2,6-difluorobenzyl)oxy]-2,6-dimethylimidazo[1,2-a]pyrazine-3-carboxamide]
3 µM | Cc1cn2c(C(=O)NC3c4ccccc4CC3O)c(C)nc2c(OCc2c(F)cccc2F)n1 (stereo not shown) [Example 13, 8-[(2,6-difluorobenzyl)oxy]-N-(2-hydroxy-2,3-dihydro-1H-inden-1-yl)-2,6-dimethylimidazo[1,2-a]pyrazine-3-carboxamide]
0.3 µM | CCCCC(NC(=O)c1c(C)nc2c(OCc3c(F)cccc3F)nc(C)cn12)C(C)(C)O (single isomer, unassigned; ent-8) [Example 7, ent-8[(2,6-Difluorobenzyl)oxy]-N-(2-hydroxy-2-methylheptan-3-yl)-2,6-dimethylimidazo[1,2-a]pyrazine-3-carboxamide]
0.3 µM | Cc1cn2c(C(=O)NCC(C)(N)CCC(F)(F)F)c(C)nc2c(OCc2c(F)cccc2F)n1 (single isomer, unassigned; enantiomer b) [Example 38, ent-N-(2-Amino-5,5,5-trifluoro-2-methylpentyl)-8-[(2,6-difluorobenzyl)oxy]-2,6-dimethylimidazo[1,2-a]pyrazine-3-carboxamide (enantiomer B)]
